Experimental data from PubChem BioAssay AID179 (DTP/NCI, 2004).
Where “and” joins values, the source holds several entries; their conditions need not be identical. Identical values can stand only once. Calls of active or inactive are those of the source.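 The calls were made as follows: active = compounds giving half or more protection of infected cells from virus-caused growth loss, again on retest; inactive = the rest.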

Tested on: CEM cells HIV-1 protection, formazan growth assay
Test: NCI AIDS Antiviral Assay
Conditions: for IC50: measured here: growth of uninfected CEM cells
Summary of the method: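 CEM (human) cells, HIV-1 infected vs uninfected, 5-point dosing, formazan growth read-out. Retest threshold 50% protection.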

Row | Structure (SMILES) | outcome | EC50 | IC50
1 | COc1ccc(C(=O)/C=C/c2ccc(OCCSCCCCCCCCCCSCCOc3ccc(/C=C/C(=O)c4ccc(OC)c(OC)c4)cc3)cc2)cc1OC | inactive |  | 
2 | O=C(OCCOCCOC(=O)c1c[nH]cc1-c1ccccc1)c1c[nH]cc1-c1ccccc1 | inactive |  | 
3 | COc1ccc(/C=C/C(=O)c2sc(-n3nc(-c4ccccc4)cc3-c3ccccc3)nc2C)cc1OC |  | > 70.8 µM | 38 µM
4 | O=C(c1ccccc1)N1CCN(C(=S)N(C(=O)c2ccccc2)c2ccccc2)C1=S |  | > 200 µM | 3.72 µM
5 | Cc1nc2cc(N)c(Cl)cc2[nH]1 |  | > 200 µM | > 200 µM
6 | CC1=C(S(=O)c2ccc(C)cc2)CCC2(CCCCO2)O1 (configuration not stated) |  | > 200 µM | 107 µM
7 | CC1=C(O)C(=O)C(C2=C(O)C(=O)C(C)=C(O)C2=O)=C(O)C1=O |  | > 263 µM | 145 µM
8 | O=P(Nc1ccccc1)(Oc1ccccc1)N(CCCl)CCCl (configuration not stated) |  | > 50.1 µM | 22.4 µM
9 | CC#CCCC1CCCCNC1=O (configuration not stated) |  | > 138 µM | > 138 µM
10 | O=C1c2cccc(NCCNCCO)c2C(=O)c2cccc(NCCNCCO)c21 | inactive |  | 
11 | CCN(CC)C(=O)c1ccc(C)c(N=NN(C)C)c1 |  | > 501 µM | 316 µM
12 | C=CC(C)(C)[C@@]12CC3C(=O)N[C@@H](Cc4ccccc4)C(=O)N3[C@@H]1N(C(C)=O)c1ccccc12 (some centres not stated) |  | > 81.3 µM | 70.8 µM
13 | Cc1c(N)c(=O)oc2cc3occc(=O)c3cc12 |  | > 20.4 µM | 13.5 µM
14 | CC(=O)n1c2c(c(=O)n1-c1ccccc1)S(=O)CCC2 (configuration not stated) |  | > 123 µM | 89.1 µM
15 | C[N+](C)(CCCn1ccnc1[N+](=O)[O-])CCCn1ccnc1[N+](=O)[O-] |  | > 200 µM | > 200 µM
16 | N#CCCN(c1ccc(/C=C2\N=C(c3ccc(Cl)cc3)OC2=O)cc1)S(=O)(=O)c1ccccc1 |  | > 72.4 µM | > 72.4 µM
17 | COc1cc2c(cc1OC)CN1CCc3ccccc3CC1C2 (configuration not stated) |  | > 200 µM | 14.8 µM
18 | C(=Nc1cnc2ccccc2c1)c1cccnc1 |  | > 1070 µM | 195 µM
19 | CCCCCCCCC1=C(OC)C(=O)c2c(C)cc(Cl)nc2C1=O | inactive |  | 
20 | CCCC1OC[C@H]2OC(n3cc(C)c(=O)[nH]c3=O)C[C@H]2N1O (some centres not stated) |  | 52.5 µM | > 200 µM
21 | COc1ccc(C2c3cn[nH]c3CC3CCCCC32)cc1 (configuration not stated) |  | > 200 µM | 34.7 µM
22 | COc1cc(N=Nc2cc(NC(C)=O)c(N=Nc3ccc(C(=O)O)cc3)cc2S(=O)(=O)O)c(C)cc1N=Nc1ccc(NC(=O)c2ccc(N)cc2)cc1C |  | 14.1 µM | > 100 µM
23 | O=C(Nc1ccccc1)c1cc2cc(O)c(O)cc2cn1 |  | > 158 µM | 7.41 µM

Row | Structure (SMILES) | outcome | EC50 | IC50
24 | COC1(c2ccccc2)Oc2ccccc2C(=O)C1(O)C[N+](=O)[O-] (configuration not stated) |  | > 200 µM | 15.5 µM
25 | Cc1cccc(/C=N/N=C(\N)NO)n1 |  | > 692 µM | 141 µM
26 | COc1cc(C(=O)N2CCOCC2)cc(OC)c1OC |  | > 200 µM | > 200 µM
27 | CC1OC(n2cc(I)c(=O)[nH]c2=O)C=CC1=O (configuration not stated) |  | > 347 µM | 2.14 µM
28 | COC(=O)Nc1cn2ccc(C(Cl)=C(Cl)Cl)cc2n1 |  | > 30.9 µM | 0.0331 µM
29 | OC[C@@H](O)[C@H](O)[C@H](O)[C@@H](O)C1SCCCS1 |  | > 200 µM | > 200 µM
30 | Cc1[nH]c(=O)[nH]c(=O)c1Cc1ccc(Cl)cc1 |  | > 200 µM | > 200 µM
31 | COC(=O)c1cc2cccc(CS(=O)(=O)O)c2cc1O |  | > 200 µM | 21.4 µM
32 | COC(=O)c1nc(-c2ccc3c(n2)C(=O)C(N)=C(OC)C3=O)c(N)c(-c2ccc(OC)c(OC)c2O)c1C |  | > 10 µM | 1.66 µM
33 | O=[N+]([O-])C(/C(Cl)=C(\Cl)Br)=C(/Cl)SCc1ccccc1 |  | > 200 µM | 1.78 µM
34 | C=C(CCCC(C)OCOCCOC)[Si](C)(C)C (configuration not stated) |  | > 95.5 µM | > 95.5 µM
35 | CCCCCCCCCCCc1noc2c1C(=O)CCC2 |  | > 24.5 µM | > 24.5 µM
36 | C1CCC(N=C2N(C3CCCCC3)C(=NC3CCCCC3)N2C2CCCCC2)CC1 |  | > 9.12 µM | > 9.12 µM
37 | COc1ccc(C(C2=C(C)C(=O)c3ccccc3C2=O)c2ccc(C(C)C)cc(=O)c2O)cc1 (configuration not stated) | inactive |  | 
38 | CCCCc1c2c(nc3c1CCc1cc4cc5c(nc4nc1-3)-c1nc3c(c(CCCC)c1CC5)CCC/C3=N/OC)/C(=N\OC)CCC2 |  | > 100 µM | 0.347 µM
39 | CCOP(=O)(CC(=O)c1ccccc1)OCC |  | > 977 µM | > 977 µM
40 | O=C1Cc2c([nH]c3ccccc23)C2(CC3CCCCN13)OCCO2 (configuration not stated) |  | > 200 µM | 182 µM
41 | Cc1noc(C)c1CCCOC1COc2ccccc2OCCOCCOc2ccccc2OC1 |  | > 100 µM | > 100 µM
42 | O=C(/C=C/c1ccccc1[N+](=O)[O-])c1ccccc1 |  | > 39.8 µM | 6.92 µM
43 | Nc1nc(NC2CC2)c2ncn(C3C=CC(CO)CC3)c2n1 (configuration not stated) |  | > 200 µM | > 200 µM
44 | CCCCCCCc1ccc(OC2OC(COC(C)=O)C(OC(C)=O)C(OC(C)=O)C2OC(C)=O)cc1 (configuration not stated) |  | > 91.2 µM | 49 µM and > 85.1 µM
45 | CCn1c(N)c(N=O)c(=O)n(CC)c1=O |  | > 200 µM | > 200 µM
46 | O=c1oc2c(ccc3nc(-c4ccccc4)sc32)c(N2CCOCC2)c1Cl | inactive |  | 

Row | Structure (SMILES) | outcome | EC50 | IC50
47 | CCCCc1ccc(-n2sc3ncc(C)cc3c2=O)cc1 |  | 1.23 µM | 21.9 µM
48 | CC(=O)N(C[C@H]1CN(Cc2ccccc2)CC[C@H]1O)C12CC3CC(CC(C3)C1)C2 |  | > 91.2 µM | 69.2 µM
49 | O=C1CC2C3CC1C2C(=O)O3 (configuration not stated) |  | > 200 µM | > 200 µM
50 | O=c1[nH]c2nc3ccccc3nc2[nH]c1=O |  |  | > 200 µM and 151 µM
51 | O=C(Nc1ccc(Cl)cc1C(F)(F)F)C(=O)C1CCCS1(=O)=O (configuration not stated) | inactive |  | 
52 | CC(C)=C=CC(C)(C)NS(=O)(=O)NC(C)(C)C=C=C(C)C |  | > 200 µM | 105 µM
53 | COc1c(Cl)cc(C(=CCCCCN(C(=O)C=C(c2cc(Cl)c(OC)c(C(=O)O)c2)c2cc(Cl)c(OC)c(C(=O)O)c2)[C@H]2CC[C@@]3(C)[C@@H](CC[C@@H]4[C@@H]3CC[C@]3(C)[C@@H](C(C)CCCC(C)C)CC[C@@H]43)C2)c2cc(Cl)c(OC)c(C(=O)O)c2)cc1C(=O)O (some centres not stated) |  | 12.9 µM | 81.3 µM
54 | O=C(O)CCSSc1ccc([N+](=O)[O-])cc1[N+](=O)[O-] |  | > 200 µM | 15.8 µM
55 | NC(CCCC(N)P(=O)(O)c1ccccc1)P(=O)(O)c1ccccc1 (configuration not stated) |  | > 661 µM | > 661 µM
56 | O=C1NC(=O)C(=Cn2c(=S)sc3ccccc32)C(=O)N1 |  | > 200 µM | > 200 µM
57 | Cc1cc2ncn(C3CCCCO3)c2cc1C (configuration not stated) |  | > 200 µM | > 200 µM
58 | C=C1CCC23CC(CC[C@@H]2[C@@]12C[C@@H](c1ccoc1)OC2=O)OC3=O (some centres not stated) |  | > 79.4 µM | > 79.4 µM
59 | Cn1nnnc1SC(F)(F)c1nc2ccccc2o1 |  | 126 µM | > 200 µM
60 | C[C@@H](CC(=O)O)OC1OC(COC(=O)C(C)(C)C)C(OC(=O)C(C)(C)C)C(OC(=O)C(C)(C)C)C1OC(=O)C(C)(C)C (some centres not stated) |  | > 200 µM | 27.5 µM
61 | CCN(CC)CCn1ncc2ccc3c(c(=O)c4cccnc4n3CCN(CC)CC)c21 |  | > 20 µM | 0.309 µM
62 | CC(O)CCC(=O)NCCS(=O)(=O)O (configuration not stated) |  | > 200 µM | > 200 µM
63 | NC(N)=N/N=C(/CC1OC(=O)c2ccccc21)c1ccc2ccccc2c1 (configuration not stated) |  | > 28.2 µM | > 28.2 µM
64 | O=C(NNc1nc(Cl)nc(Cl)n1)c1ccccc1 |  | > 200 µM | > 200 µM
65 | COC(=O)[C@H](Cc1ccccc1)NC(=O)N(CCC#N)CCN(C(=O)N[C@@H](Cc1ccccc1)C(=O)OC)c1ccccc1 |  | > 200 µM | 29.5 µM
66 | CN1CC[C@]2(C)c3cc(O)ccc3CC3CCCC1C32C (some centres not stated) | inactive |  | 
67 | C[C@@H]1S[C@H](c2c(F)cccc2F)n2c1nc1ccccc12 |  | 29.5 µM | 43.7 µM
68 | c1cc2cc(c1)CNCCNCCNCc1cccc(c1)CNCCNCCNC2 |  | > 138 µM | 60.3 µM
69 | CCOC(=O)C1=C(c2ccccc2)C12N(Cc1ccccc1)C(=O)C2(c1ccccc1)c1ccccc1 (configuration not stated) |  | > 200 µM | 11 µM

Row | Structure (SMILES) | outcome | EC50 | IC50
70 | O=C1c2ccccc2-c2cc3ccccc3c(=O)n21 | inactive |  | 
71 | C=C1C2Oc3ccccc3C1N(c1ccccc1)O2 (configuration not stated) | inactive |  | 
72 | CCCCOC(=O)C(=O)/C(=C\n1c(=S)[nH]c2cc(C)ccc21)C(=O)C=C(C)C |  | > 200 µM | > 200 µM
73 | N#Cc1cc2ccccc2nc1SN | inactive |  | 
74 | COCC(C)(C)N=CN1CCc2cc(OC)c(OC)cc2C1 |  | > 813 µM | > 813 µM
75 | CCCCc1ccc2[n+](c1)C(C(=O)OCC)=PC2 (configuration not stated) |  | > 178 µM | 145 µM
76 | COc1cc2c(cc1OC)C1CC3(CC4c5cc(OC)c(OC)cc5CCN4CC3CO)C(CO)CN1CC2 (configuration not stated) | inactive |  | 
77 | CCCCCCCCCCCCCCCCCC(=O)OCC(COC(=O)CCCN)OC(=O)CCCN (configuration not stated) | inactive |  | 
78 | CCOC(=O)C(N)CSC(=O)NC (configuration not stated) |  | > 1020 µM | 87.1 µM
79 | CC1(CO)C(=O)OC12CCCCC2 (configuration not stated) |  | > 1350 µM | > 1350 µM
80 | O=c1cc(CO)[nH]cc1O | inactive |  | 
81 | O=[N+]([O-])c1ccc2nc3n(c2c1)C(c1c(F)cccc1F)SC3 (configuration not stated) |  | > 200 µM | > 200 µM
82 | CN1c2ccccc2[C@@]23CCN4CC=CC5(CCC12CC5)C43 (some centres not stated) |  | > 178 µM | 7.41 µM
83 | CC(C)(C)N1OC2(CCCCC2)n2c(=O)c3ccccc3c(=O)n2C1c1ccccc1 (configuration not stated) |  | > 589 µM | > 589 µM
84 | O=C(CCc1nc(=S)[nH][nH]1)Nc1ccc(Cl)c(Cl)c1 | inactive |  | 
85 | Cc1ccccc1C1=[N+]([O-])c2ccccc2C1=O | inactive |  | 
86 | Cc1ccc(Nc2nc(C)c(C(/C=C/c3ccc4c(c3)OCO4)=N/Nc3ccc([N+](=O)[O-])cc3[N+](=O)[O-])s2)c([N+](=O)[O-])c1 |  | > 60.3 µM | 55 µM
87 | CC(=O)OC1CCC2C3CCC4(C)C(=O)CCC4C3C3OC23C1 (configuration not stated) |  | > 282 µM | 209 µM
88 | [N-]=[N+]=CC(=O)OC1Cc2ccccc2C1 |  | 182 µM | > 200 µM
89 | c1ccc([P+](CCC[P+](c2ccccc2)(c2ccccc2)c2ccccc2)(c2ccccc2)c2ccccc2)cc1 | inactive | > 200 µM | 135 µM
